# Active and inactive are the calls of the source.
# Experiments:
# cells [1] = type: functional, cell-based
# [2] = inhibitors of SNCA 5'UTR-driven reporter translation, confirmation, H4 neuroglioma cells, luminescence (AID 1988); type: functional, cell-based
# [3] = Luminescence Cell-Based Dose Response HTS to Identify Inhibitors of 5'UTR Stem-Loop Driven Prion Protein mRNA Translation in H4 Neuroglioblastoma Cells. [Related pubchem assays: 1827 (Project Summary), 1813 (Primary HTS)]; type: functional
# [4] = growth induction of Burl-1 ts yeast mutant, dose response, counter-screen for SUMOylation pathway inhibitor project, whole organism, S. cerevisiae, luminescence (AID 463199); type: functional
# [5] = inhibitors of firefly luciferase expression or activity, dose response, H4 neuroglioma cells, luminescence (AID 1990); type: functional, cell-based
# [6] = inhibitors of SNCA 5'UTR-driven translation, confirmation, luminescence, H4 neuroglioblastoma cells, dose confirmation (AID 2454); type: functional, cell-based;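 further: H4 neuroglioblastoma cells carrying an alpha-synuclein 5'UTR luciferase reporter; potency for inhibition of the luciferase signal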
# [7] = luciferase reporter signal reduction – luminescence, H4-C neuroglioblastoma cells, dose response (AID 2458); type: functional, cell-based;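 further: H4 neuroglioblastoma cells stably carrying a luciferase reporter gene fusion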
# [8] = target: Dual specificity protein phosphatase 3 (Homo sapiens, UniProt P51452); assay: SAR VHR1 Fluorescent Assay for In Vitro dose response studies Set 3. [Related pubchem assays (depositor defined):AID1654, AID1661, AID1878]; type: functional
# cells [9] = type: functional, cell-based; remark: listed apart in the source
# [10] = target: T1, Trace amine-associated receptor 1 (Homo sapiens, UniProt Q96RJ0); assay: Fluorescence-based cell-based high throughput dose response assay to identify agonists of the human trace amine associated receptor 1 (TAAR1).; type: functional
# T1 sequence (Q96RJ0 whole entry): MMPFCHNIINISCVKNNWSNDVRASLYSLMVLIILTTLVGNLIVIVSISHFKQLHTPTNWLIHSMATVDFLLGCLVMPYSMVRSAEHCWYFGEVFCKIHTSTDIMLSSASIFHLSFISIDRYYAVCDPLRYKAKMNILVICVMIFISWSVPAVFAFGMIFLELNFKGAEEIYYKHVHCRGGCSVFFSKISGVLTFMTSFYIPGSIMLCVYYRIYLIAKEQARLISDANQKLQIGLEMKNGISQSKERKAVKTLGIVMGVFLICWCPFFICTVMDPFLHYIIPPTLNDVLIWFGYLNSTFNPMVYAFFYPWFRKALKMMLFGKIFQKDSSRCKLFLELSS
# [11] = target: T1, Trace amine-associated receptor 1; assay: Counterscreen for agonists of the human trace amine associated receptor 1 (hTAAR1): Fluorescence-based cell-based high throughput dose response assay to identify hTAAR1 agonist that also desensitize TAAR1 receptor response.; type: functional
# cells [12] = type: functional, cell-based; remark: listed apart in the source
# Vero = assay: cells; type: functional, cell-based; settings: Chlorocebus sabaeus
# [13] = target: Lysine-specific demethylase 4C (Homo sapiens, UniProt Q9H3R0); assay: GASC-1 (JMJD2C) histone demethylase inhibitors, dose response, biochemical, DELFIA europium, cherry-picked samples (AID 488835); type: functional
# [14] = C. albicans growth with fluconazole, confirmation, fluorescence, retest (AID 2467); type: functional, cell-based
# [15] = NIH-3T3 fibroblast cytotoxicity, dose response, cytotoxicity control, cell-based, fluorescence, Alamar Blue, secondary assay (AID 2327); type: functional;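 further: NIH-3T3 mouse fibroblasts cultured with fluconazole at 8 µg/mL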
# [16] = inhibitors of cytokine-induced nitrite release, dose response, cell-based, Griess absorbance, INS-1E, dry powder, set 3 (AID 488870); type: functional; settings: Rattus norvegicus
# HEK293 [17] = assay: SAR analysis of compounds that are cytotoxic to HEK293 - Set 3. [Related pubchem assays (depositor defined):AID1575, AID1578, AID1848, AID1849, AID2001, AID2333, AID2334, AID2335, AID2337, AID2469]; type: functional, cell-based; settings: Homo sapiens
# [18] = target: T2, Nucleotide-binding oligomerization domain-containing protein 1 (Homo sapiens, UniProt Q9Y239); assay: SAR analysis of compounds that inhibit NOD1 - Set 3. [Related pubchem assays (depositor defined):AID1566, AID1575, AID1578, AID1849, AID1852, AID2333, AID2335, AID2466]; type: functional
# T2 sequence (Q9Y239 whole entry): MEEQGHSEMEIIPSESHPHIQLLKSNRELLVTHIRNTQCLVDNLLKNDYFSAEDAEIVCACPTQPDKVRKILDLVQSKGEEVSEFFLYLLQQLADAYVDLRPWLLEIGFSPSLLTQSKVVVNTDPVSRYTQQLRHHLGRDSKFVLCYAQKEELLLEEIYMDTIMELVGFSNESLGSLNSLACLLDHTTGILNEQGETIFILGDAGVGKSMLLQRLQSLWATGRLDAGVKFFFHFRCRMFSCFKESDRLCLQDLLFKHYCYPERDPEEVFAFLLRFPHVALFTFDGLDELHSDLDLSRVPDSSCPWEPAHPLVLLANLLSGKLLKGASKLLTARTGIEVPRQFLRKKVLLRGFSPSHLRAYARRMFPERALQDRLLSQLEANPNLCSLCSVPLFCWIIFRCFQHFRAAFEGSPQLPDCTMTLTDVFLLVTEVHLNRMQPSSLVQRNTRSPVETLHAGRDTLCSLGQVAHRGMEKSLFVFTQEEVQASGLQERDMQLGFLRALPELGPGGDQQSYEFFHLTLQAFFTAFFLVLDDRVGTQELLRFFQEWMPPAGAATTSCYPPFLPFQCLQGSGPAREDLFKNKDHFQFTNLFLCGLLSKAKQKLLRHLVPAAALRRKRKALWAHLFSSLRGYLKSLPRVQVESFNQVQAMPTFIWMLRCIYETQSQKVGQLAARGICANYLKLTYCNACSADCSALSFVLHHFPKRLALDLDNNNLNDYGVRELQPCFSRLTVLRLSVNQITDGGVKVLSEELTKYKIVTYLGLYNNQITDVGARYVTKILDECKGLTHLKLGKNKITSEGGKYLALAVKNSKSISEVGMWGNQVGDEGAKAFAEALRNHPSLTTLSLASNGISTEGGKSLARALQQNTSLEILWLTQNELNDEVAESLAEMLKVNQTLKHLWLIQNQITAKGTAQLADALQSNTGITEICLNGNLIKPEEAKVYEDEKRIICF
# [19] = target: Nucleotide-binding oligomerization domain-containing protein 2 (Homo sapiens, UniProt Q9HC29); assay: NOD2 signaling inhibitors, analog potency, SAR follow-up, cell-based, set 3 (AID 2799); type: functional
# Tumor necrosis factor = Tumor necrosis factor (Homo sapiens, UniProt P01375); assay: TNFa-triggered NF-kB activation inhibitors, SAR follow-up, cell-based, set 3 (AID 2801); type: functional
# [20] = target: G-protein coupled receptor 55 (Homo sapiens, UniProt Q9Y2T6); assay: GPR55 antagonists, SAR follow-up, counter-screen for GPR35 antagonist project, imaging, image-based (AID 2397); type: functional
# [21] = Counterscreen for AddAB inhibitors: absorbance-based bacterial cell-based high throughput dose response assay for inhibitors of bacterial viability. [Related pubchem assays (depositor defined):AID435030, AID449728, AID449731, AID488942, AID488955, AID488956]; type: functional
# Exodeoxyribonuclease V = Exodeoxyribonuclease V (Escherichia coli (strain K12), UniProt P04993+P07648+P08394); assay: E. coli RecBCD inhibitors, dose response, counter-screen for AddAB inhibitor project, absorbance, V66 E. coli, mutant T4 phage (AID 492957); type: functional, cell-based, Escherichia coli str. K-12 substr. MG1655
# Jurkat [22] = assay: SAR Analysis of small molecule inhibitors of […] specific antigen receptor-induced NF-kB activation in a Jurkat cell line using a luminescence assay - Set 3. [Related pubchem assays (depositor defined):AID435022, AID435025, AID465]; type: functional, cell-based; settings: Homo sapiens
# HEK293 [23] = assay: cytotoxicity in HEK293T NF-kB-Luc cells, SAR follow-up, cytotoxicity control for NF-kB activator project, cell-based, resazurin fluorescence (AID 493251); type: functional; settings: Homo sapiens
# HEK293 [24] = assay: SAR Analysis of small molecule inhibitors of B-cell specific antigen receptor-induced NF-kB activation in a HEK-293T cell line using a luminescence assay - Set 2. [Related pubchem assays (depositor defined):AID435022, AID435025, AID489021]; type: functional, cell-based; settings: Homo sapiens
# [25] = Luminescence Cell-Based Dose Retest to Confirm Inhibitors of Cancer Stem Cells. [Related pubchem assays (depositor defined):AID2717, AID2721]; type: functional; settings: Homo sapiens
# [26] = target: T3, Mannose-6-phosphate isomerase (Homo sapiens, UniProt P34949); assay: human PMI inhibitors, high substrate, primary screen, biochemical, fluorescence intensity, high mannose 6-phosphate (AID 1220)
# T3 sequence (P34949 whole entry): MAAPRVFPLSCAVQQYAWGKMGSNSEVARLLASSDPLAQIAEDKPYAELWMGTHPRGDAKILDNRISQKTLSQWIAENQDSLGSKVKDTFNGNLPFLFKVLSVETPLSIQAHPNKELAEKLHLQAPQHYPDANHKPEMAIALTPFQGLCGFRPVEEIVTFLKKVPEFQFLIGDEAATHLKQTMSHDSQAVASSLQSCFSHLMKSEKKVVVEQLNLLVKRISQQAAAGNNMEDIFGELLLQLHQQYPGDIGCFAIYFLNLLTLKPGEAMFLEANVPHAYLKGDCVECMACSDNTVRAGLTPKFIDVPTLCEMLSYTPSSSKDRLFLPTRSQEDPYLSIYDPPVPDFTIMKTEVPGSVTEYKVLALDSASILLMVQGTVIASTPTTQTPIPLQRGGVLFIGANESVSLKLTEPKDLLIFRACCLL
# [27] = target: T4, Tyrosyl-DNA phosphodiesterase 2 (Homo sapiens, UniProt O95551); assay: human TDP2 enzyme inhibitors, dose response, biochemical, epi absorbance, IC50 (AID 743297)
# T4 sequence (O95551 whole entry): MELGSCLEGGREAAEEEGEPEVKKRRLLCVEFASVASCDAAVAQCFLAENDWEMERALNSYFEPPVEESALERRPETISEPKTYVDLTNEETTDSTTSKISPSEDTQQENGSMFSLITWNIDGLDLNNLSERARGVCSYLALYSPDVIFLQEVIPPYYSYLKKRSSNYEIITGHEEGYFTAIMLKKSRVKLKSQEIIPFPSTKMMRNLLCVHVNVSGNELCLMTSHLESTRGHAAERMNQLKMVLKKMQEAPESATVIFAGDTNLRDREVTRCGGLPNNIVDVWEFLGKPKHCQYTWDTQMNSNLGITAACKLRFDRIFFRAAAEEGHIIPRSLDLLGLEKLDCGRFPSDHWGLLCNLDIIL
# [28] = cytotoxicity in HMLE control line with eGFP shRNA, dose response, counter-screen for HMLE_sh_ECad selective toxicity project, cell-based, HMLE_sh_eGFP, luminescence (AID 463074); type: functional, Homo sapiens;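 further: HMLE human mammary epithelial cells expressing control shRNA against eGFP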
# HEK293 [29] = assay: SAR Analysis of small molecule inhibitors of T-cell specific antigen receptor-induced NF-kB activation in a HEK-293T cell line using a luminescence assay - Set 2. [Related pubchem assays (depositor defined):AID435003, AID435012, AID489026]; type: functional, cell-based; settings: Homo sapiens
# Jurkat [30] = assay: SAR Analysis of small molecule inhibitors of T-cell specific antigen receptor-induced NF-kB activation in a Jurkat cell line using a luminescence assay - Set 2. [Related pubchem assays (depositor defined):AID435003, AID435012, AID465]; type: functional, cell-based; settings: Homo sapiens
# Fatty acid synthase [31] = target: T5, Fatty acid synthase (Homo sapiens, UniProt P49327); assay: FAS thioesterase domain inhibitors, dose response, biochemical, endpoint fluorescence intensity, uHTS hits (AID 624327); type: functional;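 further: fluorescence from hydrolysis of an O-methyl fluorescein acyl ester substrate by the enzyme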
# Cytochrome P450 2D6 = Cytochrome P450 2D6 (Homo sapiens, UniProt P10635);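 further: CYP2D6 member of a cytochrome P450 panel assay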
# Fatty acid synthase [32] = target: T5, Fatty acid synthase; assay: FAS thioesterase domain inhibitors, dose response, biochemical, kinetic fluorescence intensity (AID 624326); type: functional;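 further: rate of fluorescence rise from hydrolysis of a fluorogenic O-methyl fluorescein ester substrate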
# T5 sequence (P49327 whole entry, the tested form may be a part): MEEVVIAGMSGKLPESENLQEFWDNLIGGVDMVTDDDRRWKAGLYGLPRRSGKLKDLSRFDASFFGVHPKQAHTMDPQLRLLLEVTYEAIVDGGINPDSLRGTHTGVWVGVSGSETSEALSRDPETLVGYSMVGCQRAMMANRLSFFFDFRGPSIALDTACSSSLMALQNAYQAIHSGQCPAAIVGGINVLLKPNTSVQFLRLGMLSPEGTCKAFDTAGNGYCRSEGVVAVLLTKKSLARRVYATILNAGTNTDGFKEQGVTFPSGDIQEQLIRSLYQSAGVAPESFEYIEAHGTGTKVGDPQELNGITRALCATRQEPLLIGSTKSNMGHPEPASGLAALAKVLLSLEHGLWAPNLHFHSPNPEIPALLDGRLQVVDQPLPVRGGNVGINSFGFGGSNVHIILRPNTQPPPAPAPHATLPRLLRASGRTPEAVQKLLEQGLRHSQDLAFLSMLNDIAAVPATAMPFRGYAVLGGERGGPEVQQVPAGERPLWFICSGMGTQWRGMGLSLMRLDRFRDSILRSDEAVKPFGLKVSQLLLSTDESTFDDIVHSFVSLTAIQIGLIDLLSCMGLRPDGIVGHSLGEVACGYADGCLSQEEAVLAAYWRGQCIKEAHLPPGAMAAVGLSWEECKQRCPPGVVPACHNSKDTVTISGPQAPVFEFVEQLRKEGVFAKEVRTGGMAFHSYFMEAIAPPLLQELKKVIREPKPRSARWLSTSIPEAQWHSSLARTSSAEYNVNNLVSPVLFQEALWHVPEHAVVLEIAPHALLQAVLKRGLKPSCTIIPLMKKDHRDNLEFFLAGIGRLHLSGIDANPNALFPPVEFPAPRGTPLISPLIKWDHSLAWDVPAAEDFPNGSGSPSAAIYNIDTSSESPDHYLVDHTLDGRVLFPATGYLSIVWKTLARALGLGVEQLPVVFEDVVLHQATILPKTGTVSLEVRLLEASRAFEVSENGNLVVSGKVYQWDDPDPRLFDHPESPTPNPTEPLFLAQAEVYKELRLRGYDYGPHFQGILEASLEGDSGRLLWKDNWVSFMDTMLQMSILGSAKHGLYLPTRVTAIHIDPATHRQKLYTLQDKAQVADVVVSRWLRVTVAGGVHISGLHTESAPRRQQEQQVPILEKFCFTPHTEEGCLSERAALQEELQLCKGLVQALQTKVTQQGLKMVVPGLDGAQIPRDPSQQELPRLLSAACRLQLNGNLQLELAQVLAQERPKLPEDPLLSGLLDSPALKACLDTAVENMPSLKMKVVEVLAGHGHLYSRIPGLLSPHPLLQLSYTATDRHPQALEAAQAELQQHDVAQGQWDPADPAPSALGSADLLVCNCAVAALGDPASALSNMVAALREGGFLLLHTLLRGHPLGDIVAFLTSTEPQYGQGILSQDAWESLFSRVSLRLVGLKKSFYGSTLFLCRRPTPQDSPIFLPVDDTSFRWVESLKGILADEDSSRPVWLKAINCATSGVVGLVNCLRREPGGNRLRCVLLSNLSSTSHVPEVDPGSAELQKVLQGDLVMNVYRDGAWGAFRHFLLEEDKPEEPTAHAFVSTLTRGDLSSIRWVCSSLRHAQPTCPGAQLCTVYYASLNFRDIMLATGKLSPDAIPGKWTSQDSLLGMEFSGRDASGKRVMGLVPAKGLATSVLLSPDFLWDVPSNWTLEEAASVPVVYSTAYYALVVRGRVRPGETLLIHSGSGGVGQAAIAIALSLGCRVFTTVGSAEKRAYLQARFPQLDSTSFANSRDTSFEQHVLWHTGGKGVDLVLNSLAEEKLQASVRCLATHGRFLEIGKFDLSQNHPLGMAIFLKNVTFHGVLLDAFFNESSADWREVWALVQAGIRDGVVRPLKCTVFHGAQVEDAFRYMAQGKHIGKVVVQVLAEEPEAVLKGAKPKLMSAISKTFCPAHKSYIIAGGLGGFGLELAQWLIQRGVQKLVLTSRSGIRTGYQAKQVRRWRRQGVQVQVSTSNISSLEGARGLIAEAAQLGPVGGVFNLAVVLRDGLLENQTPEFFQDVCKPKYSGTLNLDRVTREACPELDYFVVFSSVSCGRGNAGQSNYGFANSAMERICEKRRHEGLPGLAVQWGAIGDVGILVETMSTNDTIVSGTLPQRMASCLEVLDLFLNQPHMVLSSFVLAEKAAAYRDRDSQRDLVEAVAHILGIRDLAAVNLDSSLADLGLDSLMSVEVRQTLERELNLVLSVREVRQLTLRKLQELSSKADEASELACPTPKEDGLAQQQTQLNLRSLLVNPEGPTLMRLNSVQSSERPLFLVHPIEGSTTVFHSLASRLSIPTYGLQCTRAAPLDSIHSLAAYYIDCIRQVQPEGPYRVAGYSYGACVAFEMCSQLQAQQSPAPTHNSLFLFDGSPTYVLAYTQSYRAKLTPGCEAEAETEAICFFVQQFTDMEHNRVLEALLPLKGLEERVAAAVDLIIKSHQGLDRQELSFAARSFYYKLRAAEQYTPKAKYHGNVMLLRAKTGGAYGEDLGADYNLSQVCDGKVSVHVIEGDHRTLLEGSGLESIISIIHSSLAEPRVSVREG
# Chain of Cytochrome P450 2D6 (P10635 whole entry, the tested form may be a part): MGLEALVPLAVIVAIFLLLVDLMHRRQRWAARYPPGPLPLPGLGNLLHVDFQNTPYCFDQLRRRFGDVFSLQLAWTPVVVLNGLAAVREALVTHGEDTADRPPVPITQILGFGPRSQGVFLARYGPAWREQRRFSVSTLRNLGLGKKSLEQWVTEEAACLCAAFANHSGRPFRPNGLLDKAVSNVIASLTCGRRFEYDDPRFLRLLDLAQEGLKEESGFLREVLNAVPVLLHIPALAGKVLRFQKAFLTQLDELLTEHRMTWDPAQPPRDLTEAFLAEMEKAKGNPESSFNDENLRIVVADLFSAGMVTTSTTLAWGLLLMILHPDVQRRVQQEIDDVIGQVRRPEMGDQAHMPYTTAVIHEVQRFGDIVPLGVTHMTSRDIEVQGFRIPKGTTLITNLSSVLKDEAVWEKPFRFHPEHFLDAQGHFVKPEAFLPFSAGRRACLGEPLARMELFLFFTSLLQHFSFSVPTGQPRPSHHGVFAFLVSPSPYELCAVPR
# Chain of Dual specificity protein phosphatase 3 (P51452 whole entry): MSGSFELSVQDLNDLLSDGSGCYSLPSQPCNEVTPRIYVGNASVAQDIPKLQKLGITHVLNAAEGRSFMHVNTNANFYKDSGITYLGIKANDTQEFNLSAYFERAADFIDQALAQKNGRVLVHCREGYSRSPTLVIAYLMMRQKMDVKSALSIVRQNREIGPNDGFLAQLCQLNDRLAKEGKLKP
# Chain of G-protein coupled receptor 55 (Q9Y2T6 whole entry): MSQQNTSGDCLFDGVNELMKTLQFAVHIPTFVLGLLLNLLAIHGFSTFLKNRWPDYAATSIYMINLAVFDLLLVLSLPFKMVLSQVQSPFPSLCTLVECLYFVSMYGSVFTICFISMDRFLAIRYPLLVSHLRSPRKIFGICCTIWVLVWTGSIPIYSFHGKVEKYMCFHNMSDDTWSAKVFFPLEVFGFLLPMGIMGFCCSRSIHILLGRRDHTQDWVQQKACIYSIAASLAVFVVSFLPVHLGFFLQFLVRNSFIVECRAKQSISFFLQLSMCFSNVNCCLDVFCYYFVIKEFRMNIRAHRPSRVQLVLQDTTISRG
# Chain of Lysine-specific demethylase 4C (Q9H3R0 whole entry): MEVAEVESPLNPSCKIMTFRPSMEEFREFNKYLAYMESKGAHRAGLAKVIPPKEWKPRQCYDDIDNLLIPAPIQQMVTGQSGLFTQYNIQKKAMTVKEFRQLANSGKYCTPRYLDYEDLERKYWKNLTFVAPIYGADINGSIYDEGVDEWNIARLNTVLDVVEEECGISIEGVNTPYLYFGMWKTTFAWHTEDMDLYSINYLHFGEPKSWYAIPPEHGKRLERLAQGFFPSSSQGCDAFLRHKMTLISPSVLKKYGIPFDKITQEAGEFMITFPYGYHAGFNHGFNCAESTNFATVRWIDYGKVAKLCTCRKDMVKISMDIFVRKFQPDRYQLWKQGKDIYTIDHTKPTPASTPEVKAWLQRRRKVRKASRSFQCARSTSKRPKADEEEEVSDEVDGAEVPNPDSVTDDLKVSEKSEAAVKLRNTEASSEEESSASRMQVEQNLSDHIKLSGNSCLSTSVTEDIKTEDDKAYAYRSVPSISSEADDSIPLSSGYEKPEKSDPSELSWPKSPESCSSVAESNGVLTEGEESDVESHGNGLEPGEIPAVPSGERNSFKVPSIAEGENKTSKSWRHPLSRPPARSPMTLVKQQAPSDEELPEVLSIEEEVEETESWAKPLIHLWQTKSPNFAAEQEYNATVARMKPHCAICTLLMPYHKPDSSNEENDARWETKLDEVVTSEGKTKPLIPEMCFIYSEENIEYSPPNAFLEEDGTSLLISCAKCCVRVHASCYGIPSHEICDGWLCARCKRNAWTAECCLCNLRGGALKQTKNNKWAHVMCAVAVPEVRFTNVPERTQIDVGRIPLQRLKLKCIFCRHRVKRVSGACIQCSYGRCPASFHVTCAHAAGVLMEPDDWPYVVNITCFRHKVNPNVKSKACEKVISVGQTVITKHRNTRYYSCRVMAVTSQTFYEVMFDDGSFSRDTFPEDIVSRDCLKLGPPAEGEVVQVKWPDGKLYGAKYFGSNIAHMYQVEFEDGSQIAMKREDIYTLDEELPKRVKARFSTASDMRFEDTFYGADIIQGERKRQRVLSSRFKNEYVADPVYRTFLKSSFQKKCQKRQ
# Chain of Tumor necrosis factor (P01375 whole entry): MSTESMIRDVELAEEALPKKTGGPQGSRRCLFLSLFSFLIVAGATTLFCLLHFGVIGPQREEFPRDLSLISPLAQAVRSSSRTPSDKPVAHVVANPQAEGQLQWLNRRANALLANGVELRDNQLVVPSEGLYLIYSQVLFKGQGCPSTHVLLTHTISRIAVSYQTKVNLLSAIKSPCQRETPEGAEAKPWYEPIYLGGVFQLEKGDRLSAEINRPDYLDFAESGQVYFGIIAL
compound,measurement,setting,value
COc1ccc2cc3c(N)nn(C(=O)c4ccccc4Cl)c3nc2c1,EC50,cells [1],0.736 µM (active)
same,EC50,[2],9.14 µM (active)
same,EC50,[3],< 0.1 µM (active)
same,AC50,[4],47.8 µM (active)
same,EC50,[5],< 0.1 µM (active)
same,EC50,[6],> 12 µM (not active)
same,EC50,[7],1.43 µM (active)
COc1ccc(-c2nnc(Nc3nc4c(F)cccc4s3)o2)cc1,IC50,[8],3.71 µM (active)
CCCCOc1ccc(C(=O)Nc2ccc(N3CCN(C)CC3)cc2)cc1,IC50,cells [9],> 29.9 µM (inactive)
same,EC50,[10],10.2 µM (inactive)
same,IC50,[11],> 29.9 µM (inactive)
same,EC50,cells [12],> 29.9 µM (inactive)
same,IC50,Vero,24.8 µM (active)
FC(F)(F)c1ccccc1N=C(S)NN=C1CCCCCC1,AC50,[13],6.8 µM (active)
same,EC50,[14],> 38 µM (not active)
same,EC50,[15],54 µM (active)
COc1ccc(NC(=O)N(C)C[C@@H]2Oc3c(NC(=O)Nc4cccc5ccccc45)cccc3C(=O)N([C@@H](C)CO)C[C@H]2C)cc1,AC50,[16],43.7 µM (active)
CCCCn1c(SCCCc2ccccc2)nc2c1c(=O)[nH]c(=O)n2C,IC50,HEK293 [17],> 20 µM (inactive)
same,IC50,[18],> 20 µM (inactive)
same,IC50,[19],11.9 µM (active)
same,IC50,Tumor necrosis factor,17.7 µM (active)
Cc1c(C(=O)Nc2ccc3c(c2)OCCO3)sc2ncnc(N3CCCCC3C)c12 (configuration not stated),IC50,[20],4.95 µM (active)
O=C(NNC(=O)c1cc2ccccc2cc1O)Nc1ccc(Br)cc1,IC50,[21],> 119 µM (inactive)
same,IC50,Exodeoxyribonuclease V,> 119 µM (inactive)
CCOc1ccc(-c2nc(CSCC(=O)NCCOC)c(C)o2)cc1,IC50,Jurkat [22],> 80 µM (inactive)
same,IC50,HEK293 [23],> 80 µM (inactive)
same,IC50,HEK293 [24],> 80 µM (inactive)
Oc1c(/C=N/c2cccc3nsnc23)ccc2ccccc12,AC50,[25],23.7 µM (active)
same,IC50,[26],> 50 µM (not active)
same,IC50,[27],80.5 µM (inactive)
same,AC50,[28],29.4 µM (active)
CC(=O)N1CCc2cc(NC(=O)c3ccc([N+](=O)[O-])o3)ccc21,IC50,HEK293 [29],50.5 µM (inactive)
same,IC50,HEK293 [23],> 80 µM (inactive)
same,IC50,Jurkat [30],49.5 µM (inactive)
CC(C)(C)c1ccc(OC(=O)Nc2ccc(O)c(C(=O)O)c2)cc1,IC50,Fatty acid synthase [31],9.66 µM (active)
same,AC50,Cytochrome P450 2D6,inconclusive
same,IC50,Fatty acid synthase [32],11.7 µM (active)

# Source: ChEMBL document CHEMBL1201862, “PubChem BioAssay data set” (2004)
